These results are taken from PubChem BioAssay AID1361 (SRMLSC, 2008).

A short description of this assay: blockers of mitochondrial fusion, WT vs mutant – cell-based, chemical genetic, wild-type and mutant, confirmation (AID 1361). Particulars: Cell-based mitochondrial fusion phenotype, imaging.
Where [1] appears, read: mutant cells, measured here: mutant cell line IC50.

Activity calls are given as the source filed them. How the calls were made is not given here.

Consider `CCOc1ccc2c(c1)C(C)=CC(C)(C)N2S(=O)(=O)c1ccc(C)cc1`, for which the IC50 (in general, the concentration that gives 50% inhibition) is 13.7 µM (WT cells) and 23.2 µM under setting [1].
On the same counts, the results for `c1ccc(-c2nc(N3CCCCC3)nc3ccccc23)cc1` are 18.3 µM and 19.4 µM.
On the same counts, the results for `CC(C)(C)n1nnnc1C(c1ccc(F)cc1)N(Cc1ccc(F)cc1)Cc1ccco1` (centres undefined) are 14.6 µM and over 25 µM.
For `Cc1cccc(NC(=O)c2ccc(N3CCCCC3)c([N+](=O)[O-])c2)n1`, the IC50 runs as follows: (WT cells) > 25 µM (inactive); under setting [1], over 25 µM.
In the same order, the values of `CC1CC(C)CN(C2CCN(Cc3cccnc3)CC2)C1` (centres undefined) are > 25 µM (inactive) and over 25 µM.
With `Cc1ccc(Nc2nc(N)nc(CSc3nc4ccccc4s3)n2)cc1`, the IC50 reads like this: (WT cells) 14.2 µM; under setting [1], 17 µM.
Turning to `C1CCN=C(Nc2nc3c(s2)CCCC3)CC1`, the IC50 reads like this: (WT cells) > 25 µM (inactive); under setting [1], over 25 µM.
With `O=S(=O)(NCC(Nc1ccc(Cl)cc1)c1ccccc1)c1ccccc1` (centres undefined), the IC50 was 13.9 µM (WT cells) and over 25 µM under setting [1].
On the same counts, the results for `Cc1ccc2nc(N/N=C/c3ccccc3F)nc(-c3ccccc3)c2c1` are 7.54 µM and 16.6 µM.
Take `OCCNc1c2c(nc3ccccc13)CCCC2`: the IC50 runs as follows: (WT cells) > 25 µM (inactive); under setting [1], over 25 µM.
On to `O=C(Nc1cccc(Cl)c1N1CCCC1)c1ccc(Br)o1`, for which the concentration for half-maximal inhibition (IC50) runs as follows: (WT cells) 18.1 µM; under setting [1], over 25 µM.
In the same order, the values of `Cc1nn(C(C)C(=O)NCC2CCCO2)c(=O)c2cc3occc3n12` (centres undefined) are > 25 µM (inactive) and over 25 µM.
In the case of `COc1ccc(OC)c(S(=O)(=O)Nc2ccc(Oc3ccccc3)cc2)c1`, the IC50 is > 25 µM (inactive) (WT cells) and over 25 µM under setting [1].
Regarding `Clc1ccccc1Cn1c(/C=C/c2ccco2)nc2ccccc21`, the IC50 (WT cells) was 11.6 µM and the IC50 under setting [1] was 25 µM.
In the same order, the values of `CCCCN(CCCC)CCNC(=O)Cc1nc2c(c(=O)[nH]c(=O)n2C)n1C` are > 25 µM (inactive) and over 25 µM.
In the case of `O=C(NCc1ccccc1)c1ccc(C(=O)N(C2CCCCC2)C2CCCCC2)cc1`, the IC50 by setting is: (WT cells) > 25 µM (inactive); under setting [1], over 25 µM.
As for `COc1cc(SC)ccc1C(=O)NCC1CCCO1` (centres undefined), the IC50 was > 25 µM (inactive) (WT cells) and over 25 µM under setting [1].
As to `CC1(C)C=Cc2c(c3c(c4c(=O)c(-c5ccc(O)cc5)coc24)OC(C)(C)CC3)O1`, the IC50 was 14 µM (WT cells) and 24.4 µM under setting [1].
In the case of `CCC(C)c1ccc(NC(=S)Nc2ccc(OC)c(OC)c2)cc1` (centres undefined), the IC50 (WT cells) was > 25 µM (inactive) and the IC50 under setting [1] was over 25 µM.
In the same order, the values of `CC(C)N(C(=S)NC1CC2CCC1C2)c1ccccc1` (centres undefined) are 25 µM (inactive) and over 25 µM.
`O=C(C1=C[C@H](c2csc3ccccc23)C[C@H](OCc2ccc(CO)cc2)O1)N1CCN(Cc2ccc3c(c2)OCO3)CC1`: the IC50 is 2.16 µM (WT cells) and 10.5 µM under setting [1].
On the same counts, the results for `O=[N+]([O-])c1ccc(Nc2c3ccccc3nc3ccccc23)cc1` are 12.4 µM and 18.1 µM.
As to `CC(C)c1ccc(NC(=O)c2sccc2-n2cccc2)cc1`, the IC50 is, setting by setting: (WT cells) > 25 µM (inactive); under setting [1], over 25 µM.
In the same order, the values of `COc1ccc(S(=O)(=O)N2CCC[C@H]2C(=O)NC2=NCCS2)cc1` are > 25 µM (inactive) and over 25 µM.
`CCCCC(=O)NC(c1ccc([N+](=O)[O-])cc1)c1c(O)ccc2ccccc12` (centres undefined): the IC50 (WT cells) was > 25 µM (inactive) and the IC50 under setting [1] was over 25 µM.
As to `CCOC(=O)c1c(-n2c(C)cc(C=C3C(=O)NC(=S)NC3=O)c2C)sc2c1CCCC2`, the IC50 runs as follows: (WT cells) 7.21 µM; under setting [1], over 25 µM.
As for `O=C(NC(Cc1c[nH]c2ccccc12)C(=O)Nc1ccc(OC(F)(F)F)cc1)c1cccs1` (centres undefined), the IC50 (WT cells) was > 25 µM (inactive) and the IC50 under setting [1] was over 25 µM.
In the same order, the values of `CN1CC(c2ccccc2)C2(SC(=S)N(Cc3ccco3)C2=O)C12C(=O)Nc1ccccc12` (centres undefined) are 6.9 µM and 12 µM.
On the same counts, the results for `O=C(Nc1cc(Cl)ccc1Oc1ccccc1)c1ccc(F)cc1` are 22.7 µM and over 25 µM.
In the same order, the values of `CC1CC2=C(NC(=S)NC2c2cccc(F)c2)/C(=C/c2cccc(F)c2)C1` (centres undefined) are 8.15 µM and over 25 µM.
In the case of `Cc1cccc(N2CCN(C(=O)c3ccc(Cl)c(S(=O)(=O)NCc4ccco4)c3)CC2)c1C`, the IC50 is > 25 µM (inactive) (WT cells) and over 25 µM under setting [1].
Consider `CNC(=S)N1CCN(c2ccc([N+](=O)[O-])cc2)CC1`, for which the IC50 runs as follows: (WT cells) > 25 µM (inactive); under setting [1], over 25 µM.
As for `Cc1cc(NC(=S)N(Cc2ccc(Br)cc2)Cc2ccc(C(=O)O)cc2)ccc1Cl`, the half-maximal inhibitory concentration (IC50) reads like this: (WT cells) 16.3 µM; under setting [1], over 25 µM.
`O=C(Nc1ccccc1)Nc1cc(OCC(F)(F)F)cc(OCC(F)(F)F)c1`: the IC50 is, setting by setting: (WT cells) 16.3 µM; under setting [1], over 25 µM.
In the case of `CCC1=NN2C(=N)/C(=C\c3cccn3-c3ccc(C)cc3C)C(=O)N=C2S1`, the IC50 reads like this: (WT cells) 13.2 µM; under setting [1], over 25 µM.
For `O=C(c1ccccn1)N1N=C2/C(=C/c3ccc(F)cc3)CCCC2C1c1ccc(F)cc1` (centres undefined), the concentration for half-maximal inhibition (IC50) (WT cells) was 16.1 µM and the IC50 under setting [1] is over 25 µM.
Consider `Cc1ccc(/C=N/n2cnc3sc(-c4ccccc4)cc3c2=O)o1`, for which the IC50 was > 25 µM (inactive) (WT cells) and over 25 µM under setting [1].
In the same order, the values of `CC12CCC3C(CC=C4CC(O)CCC43C)C1C/C(=C\c1ccccc1F)C2=O` (centres undefined) are 9.36 µM and over 25 µM.
On the same counts, the results for `C(=N\Nc1nc(N2CCCCCC2)nc(N2CCCCCC2)n1)/c1ccccc1` are 9.35 µM and over 25 µM.
Regarding `Cc1ccc(C(=O)Nc2nc(-c3ccccc3)c(-c3ccccc3)o2)cc1`, the IC50 was 4.97 µM (WT cells) and 9.35 µM under setting [1].
Turning to `C(=N\Nc1nc(Nc2ccccc2)nc(Nc2ccccc2)n1)/c1cccnc1`, the IC50 is 20.9 µM (WT cells) and over 25 µM under setting [1].
`COc1ccc(C2=Nc3cccc4cccc(c34)N2)cc1`: the IC50 reads like this: (WT cells) > 25 µM (inactive); under setting [1], over 25 µM.
Take `CC1CC(C)CN(c2ncnc3c2cnn3Cc2ccc(Cl)cc2)C1` (centres undefined): the IC50 was 12.8 µM (WT cells) and 17.9 µM under setting [1].
Consider `Cc1cccc(Cn2nc(-n3cccc3)c3c(C)cc(C)nc32)c1`, for which the IC50 was > 25 µM (inactive) (WT cells) and over 25 µM under setting [1].
On the same counts, the results for `C[C@]1(C(=O)NCCCNc2ncc(C(F)(F)F)cc2Cl)C=C[C@@H](Cc2ccccc2)N1C(=O)c1ccccc1` are 11.9 µM and over 25 µM.
Turning to `CCOC(=O)c1c(NS(=O)(=O)c2ccc(Br)cc2)sc2c1CCC2`, the IC50 (WT cells) was 12.6 µM and the IC50 under setting [1] was over 25 µM.
In the same order, the values of `FC(F)(F)c1cc(-c2ccccc2)nc(NCc2cccs2)n1` are 18.8 µM and over 25 µM.
In the case of `O=C(N/C=N/OCc1ccc(Cl)cc1Cl)NOCc1ncc(C(F)(F)F)cc1Cl`, the IC50 (WT cells) is 16 µM and the IC50 under setting [1] was over 25 µM.
In the same order, the values of `CN(C)S(=O)(=O)c1ccc(C(=O)Nc2nnc(-c3ccc4c(c3)CCCC4)o2)cc1` are 12.8 µM and 22 µM.
On the same counts, the results for `O=[N+]([O-])c1ccc(/C=N/Nc2nc(N3CCCCCC3)nc(N3CCCCCC3)n2)o1` are 8.58 µM and over 25 µM.
On the same counts, the results for `O=[N+]([O-])c1cc(C(F)(F)F)ccc1NCCc1c[nH]c2ccccc12` are 13.4 µM and 18.9 µM.
Regarding `CC1CCN(S(=O)(=O)c2ccc(Oc3ccc([N+](=O)[O-])cc3)cc2)CC1`, the IC50 reads like this: (WT cells) > 25 µM (inactive); under setting [1], over 25 µM.
In the same order, the values of `Cn1c(Cc2ccccc2)nnc1SCC(=O)c1ccc(Br)s1` are > 25 µM (inactive) and over 12.5 µM.
On the same counts, the results for `Cc1ccc(/C(=N\O)c2oc3c(C)c4oc(=O)cc(C)c4cc3c2C)cc1` are 7.3 µM and over 25 µM.
In the case of `O=C(CN1CCCCC1)Nc1ccc(Br)cc1C(=O)c1ccccc1Cl`, the IC50 reads like this: (WT cells) 12 µM; under setting [1], over 25 µM.
On the same counts, the results for `COc1ccc(O[C@H]2C=C[C@@H](c3ccccc3)O[C@@H]2COC(=O)CC/C(C)=N/O[C@@H](C)CN2CCCCc3nc(C)c(C)cc32)cc1` are 12.1 µM and over 25 µM.
In the same order, the values of `Cc1ccc(NC(=S)N(Cc2ccc(Br)cc2)Cc2ccc(C(=O)O)cc2)cc1C` are > 25 µM (inactive) and over 25 µM.
For `CC(=O)C(N=Nc1ccccc1)(Sc1nnc(-c2ccccc2)n1-c1ccccc1)C(C)=O`, the half-inhibitory concentration (IC50) is 6.6 µM (WT cells) and over 25 µM under setting [1].
In the same order, the values of `O=C(c1cc(Cl)cc(Cl)c1)N1CCC(=O)N(C(COCc2ccccc2)Cc2ccccc2)CC1` (centres undefined) are > 25 µM (inactive) and over 25 µM.
Consider `O=C1NC(=O)C(CCc2ccncc2)(Cc2cccc(Cl)c2Cl)C(=O)N1c1ccc(Br)cc1` (centres undefined), for which the IC50 was 10.1 µM (WT cells) and over 25 µM under setting [1].
Take `COc1ccc(N/C(N)=N/c2nc(CSc3ccc(C)cc3)cc(=O)[nH]2)cc1`: the IC50 was > 25 µM (inactive) (WT cells) and over 25 µM under setting [1].
Regarding `COc1cc(C(=O)OC2CC3CCC2(C)C3(C)C)ccc1OC(C)=O` (centres undefined), the IC50 by setting is: (WT cells) 20 µM; under setting [1], over 25 µM.
With `CN1C(=S)SC(C)(C)C1(C)NO` (centres undefined), the IC50 is > 25 µM (inactive) (WT cells) and over 25 µM under setting [1].
In the same order, the values of `COc1cccc(-c2nc(OC(C)C)c3ccccc3n2)c1` are > 25 µM (inactive) and over 25 µM.
As to `COC(=O)c1ccccc1NC(=O)CNc1cc(Cl)ccc1N1CCOCC1`, the 50% inhibitory concentration (IC50) reads like this: (WT cells) 24.7 µM; under setting [1], over 25 µM.
On the same counts, the results for `Cc1sc(NC(=O)c2ccccc2)c(C(c2ccc(Cl)cc2)N2CCN(CCO)CC2)c1C` (centres undefined) are 13.5 µM and over 25 µM.
Turning to `CC(C)C(c1nnnn1C(C)(C)C)N1CCC(Cc2ccccc2)CC1` (centres undefined), the IC50 by setting is: (WT cells) 12.1 µM; under setting [1], over 25 µM.
